“Also recorded” adds a separate entry of the source.
Columns and labels:
[1] = test system: REN 50 cells; assay: Effectiveness experiment: REN 50 renal tumors implanted in mice (tumor volume/weight, CD31 vascular density, necrosis); assay type: in vivo; conditions: for vascular density / tumor vasculature (anti-CD31 immunohistochemistry) / tumor weight and volume / percentage of necrosis: REN 50 tumors; for vascular density / tumor vasculature (anti-CD31 immunohistochemistry) / percentage of necrosis: compared to the control group; for vascular density / tumor vasculature (anti-CD31 immunohistochemistry): Figures 5 and 6; for tumor weight and volume: continuous administration; for percentage of necrosis: hematoxylin-eosin sections, Figure 7
Procedure: An effectiveness experiment was performed according to the following scheme: tumors of about 2 mm^3 size were implanted in mice, and the tumors were allowed to develop for 20 days (to a size of about 750 mm^3). The time from tumor development to death was measured as the anti-angiogenic response.
7 mice were implanted per treatment group. REN 50 cells were implanted. Treatment started when mice developed tumors with a volume tumor of about 750 mm^3, and lasted for three weeks. Table 2. Treatment groups
The inventors then analyzed whether these inhibitors produced any effect at the level of tumor vasculature by conducting in immunohistochemistry, using an anti-CD31 antibody as a marker of endothelial cells.
Hematoxylin-eosin stained paraffin sections of tumors obtained from mice from the different treatment groups were analyzed in order to evaluate the degree of necrosis.

[2] = test system: primary tumor REN 28; assay: Long-term survival / anti-angiogenic resistance experiment: tumors from primary tumor REN 28 in mice; assay type: in vivo
Description: The inventors assessed next the effect of therapy with PD-ECGF inhibitors in a long term survival experiment, wherein the tumors are able to regrow (resistance) and wherein PD-ECGF overexpression has been observed.
A survival experiment was followed, wherein the drugs previously tested on the primary tumor from REN 28 were continuously administered. This tumor line was selected because the inventors this tumor is able to generate an anti-angiogenic resistance phenotype with after treatment with bevacizumab and DC101.
Again, tumors of about 2 mm^3 size were implanted in mice, and the tumors were allowed to develop for 30 days (with a size of about 1,000 mm^3). The time from tumor development to death was measured as the anti-angiogenic resistance.
Tumors were measured and weighted; samples were collected for further processing. Treatments were stopped or changed on day 15. Table 3. Treatment groups.
Several treatment strategies were followed in anti-VEGFR2 resistant tumors: • 1. stop the anti-VEGFR2 (DC101) treatment just when the tumors begin to becomes resistant, and verify if said tumors are able to regrow with or without vasculature (represented as "DC101→R→OFF" treatment group), • 2. change the VEGFR2 inhibition therapy by the inhibition of another pathway (PD-ECGF) (represented as "DC101→R→AEAC" treatment group), • 3. combine the VEGFR2-inhibition therapy (DC101) and the PD-ECGF-inhibition therapy ([…]) (represented as "DC101→R→DC101 1 + AEAC" treatment group).

[3] = AEAC added to DC101 after development of resistance (DC101→R→DC101 + AEAC)
[4] = therapy changed from DC101 to AEAC at onset of resistance (DC101→R→AEAC)

SMILES	vascular density / tumor vasculature (anti-CD31 immunohistochemistry) [1]	tumor weight and volume [1]	percentage of necrosis [1]	number of vessels (labeled with anti-CD31 antibody) ([1]; after 15 days of treatment, Figure 5)	number of vessels (labeled with anti-CD31 antibody) ([1]; after 21 days of treatment, Figure 6)	number of vessels / vascular density [2, 3]	toxicity to animals [2, 3]	tumor size / tumor volume [2, 3]	average and total survival ([2]; REN 28, continuous treatment, compared to control mice, Figure 8)	survival [2, 4]	time of tumor progression [2, 4]
Oc1ncnc2c1ncn2[C@@H]1O[C@H](COC(c2ccccc2)(c2ccccc2)c2ccccc2)[C@@H](O)[C@H]1O [KIN 59, 5'-O-trityl-inosine]	decreased tumor vasculature	decreased tumor weight and volume	increased tumor necrosis	decrease in the number of vessels	–	–	–	–	–	–	–
NCCNc1[nH]c(=O)[nH]c(=O)c1Cl [AEAC, 6-(2-aminoethyl)amino-5-chlorouracil]	decreased tumor vasculature	decreased tumor weight and volume	increased tumor necrosis	–	decrease in the number of vessels	decreased vascular density	toxic	small tumoral volume; also recorded: sustained effect on tumor volume reduction	increased average and total survival	increased survival	delayed the time of tumor progression

From patent publication EP3067369A1, “Methods and compositions for the treatment of anti-angiogenic resistant cancer” (Institut d'Investigació Biomèdica de Bellvitge (IDIBELL), priority 2015, dated 2016)
